Broadly, the pIC50 is −log10 of the IC50, conventionally taken in molar units. The low end stands for a large IC50, the high end for a small IC50.

pIC50: −log10 of the molar value. Bounds are passed on as bounds.

Results on 36 compounds are retold here after US20190256509A1, “HISTONE DEMETHYLASE INHIBITORS” (CHRYSALIS, INC., priority 2016, published 2019).

This experiment concerns the target T1, KDM5B enzyme (Homo sapiens, UniProt Q9UGL1).
T1 construct: Reaction Biology Corp (named for the assay, not expressly for the enzyme)
The experiment can be described thus: KDM5B HTRF (TR-FRET) demethylase inhibition assay. The format is biochemical. Particulars: 1.2 nM KDM5B, 30 nM Biotin-H3K4Me3 1-21 substrate, 10 point dose-response. The procedure:
Ten point dose-response curves for the compounds of Examples 1-135 were determined using a homogeneous time resolved fluorescence (HTRF) assay (Reaction Biology Corp, Malvern, Pa.). This assay combines fluorescence resonance energy transfer (FRET) with time resolve (TR) measurements (TR-FRET). The KDM5B α-ketoglutarate-dependent demethylase activity is calculated by measuring demethylation of a biotin labeled histone tri-methylated H3K4 substrate using an europium-cryptate (Eu)-labeled antibody donor specific for dimethylated histone H3K4 and a Streptavidin-XL665 acceptor that binds to the biotin group of substrate, and detecting FRET by exciting the reaction mixture at 320 nm and reading dual emissions at 615 nm and 665 nm.
Briefly, compounds disclosed herein were solubilized in DMSO and a series of 10, three-fold serial dilutions were made for each compound in 100% DMSO. The initial starting concentration for the serial dilutions of each compound was 10 μM or 100 μM. Control samples lacking compound, KDM5B enzyme or various reaction components also were prepared and processed in parallel with compound test samples.
An aliquot of each serial dilution of test compound was added to a 384 well plate (Corning Cat #3572) containing 1.2 nM KDM5B enzyme suspended in 50 mM Hepes, pH7.5, 50 mM NaCl, 0.01% Tween 20, 0.1% BSA, and 1% DMSO (final concentrations) in a 10 microliter reaction volume using a LABCYTE ECHO liquid handler. The samples were mixed, subjected to centrifugation and the plate was pre-incubated at room temperature for 15 minutes (min), to which 30 nM Biotin-H3K4Me3 1-21 substrate (Anaspec, Freemont Calif., Cat #64192), 20 μM Fe(II) and 20 μM α-ketoglutarate co-factors, and 100 μM Ascorbate were added to initiate the enzymatic reaction. The reaction mixture was incubated at room temperature for 45 minutes. A 10 μl aliquot of a detection mixture of Eu-labeled anti-histone H3K4Me2 antibody (CisBIO, Bedford Mass., Cat #610AXLB) and Streptavidin-XL665 (CisBIO, Bedford Mass., Cat #610 SAXLB) in 200 mM potassium fluoride and 10 mM EDTA was added and kinetic measurements were read at 5 minute intervals for a period of 30 minutes using an Envision Multiplate Reader (PerkinElmer Model 2102; excitation at 320 nm and emission reads at 615 nm and 665 nm). The IC50 value for each compound was determined from the 665/615 ratio obtained for each 10 point dose-response curve using GraphPad Prism 4 software with a sigmodial dose response.
A general note: Time-resolved FRET reads energy transfer from a long-lived donor to a nearby acceptor.

T1 sequence (Q9UGL1 whole entry): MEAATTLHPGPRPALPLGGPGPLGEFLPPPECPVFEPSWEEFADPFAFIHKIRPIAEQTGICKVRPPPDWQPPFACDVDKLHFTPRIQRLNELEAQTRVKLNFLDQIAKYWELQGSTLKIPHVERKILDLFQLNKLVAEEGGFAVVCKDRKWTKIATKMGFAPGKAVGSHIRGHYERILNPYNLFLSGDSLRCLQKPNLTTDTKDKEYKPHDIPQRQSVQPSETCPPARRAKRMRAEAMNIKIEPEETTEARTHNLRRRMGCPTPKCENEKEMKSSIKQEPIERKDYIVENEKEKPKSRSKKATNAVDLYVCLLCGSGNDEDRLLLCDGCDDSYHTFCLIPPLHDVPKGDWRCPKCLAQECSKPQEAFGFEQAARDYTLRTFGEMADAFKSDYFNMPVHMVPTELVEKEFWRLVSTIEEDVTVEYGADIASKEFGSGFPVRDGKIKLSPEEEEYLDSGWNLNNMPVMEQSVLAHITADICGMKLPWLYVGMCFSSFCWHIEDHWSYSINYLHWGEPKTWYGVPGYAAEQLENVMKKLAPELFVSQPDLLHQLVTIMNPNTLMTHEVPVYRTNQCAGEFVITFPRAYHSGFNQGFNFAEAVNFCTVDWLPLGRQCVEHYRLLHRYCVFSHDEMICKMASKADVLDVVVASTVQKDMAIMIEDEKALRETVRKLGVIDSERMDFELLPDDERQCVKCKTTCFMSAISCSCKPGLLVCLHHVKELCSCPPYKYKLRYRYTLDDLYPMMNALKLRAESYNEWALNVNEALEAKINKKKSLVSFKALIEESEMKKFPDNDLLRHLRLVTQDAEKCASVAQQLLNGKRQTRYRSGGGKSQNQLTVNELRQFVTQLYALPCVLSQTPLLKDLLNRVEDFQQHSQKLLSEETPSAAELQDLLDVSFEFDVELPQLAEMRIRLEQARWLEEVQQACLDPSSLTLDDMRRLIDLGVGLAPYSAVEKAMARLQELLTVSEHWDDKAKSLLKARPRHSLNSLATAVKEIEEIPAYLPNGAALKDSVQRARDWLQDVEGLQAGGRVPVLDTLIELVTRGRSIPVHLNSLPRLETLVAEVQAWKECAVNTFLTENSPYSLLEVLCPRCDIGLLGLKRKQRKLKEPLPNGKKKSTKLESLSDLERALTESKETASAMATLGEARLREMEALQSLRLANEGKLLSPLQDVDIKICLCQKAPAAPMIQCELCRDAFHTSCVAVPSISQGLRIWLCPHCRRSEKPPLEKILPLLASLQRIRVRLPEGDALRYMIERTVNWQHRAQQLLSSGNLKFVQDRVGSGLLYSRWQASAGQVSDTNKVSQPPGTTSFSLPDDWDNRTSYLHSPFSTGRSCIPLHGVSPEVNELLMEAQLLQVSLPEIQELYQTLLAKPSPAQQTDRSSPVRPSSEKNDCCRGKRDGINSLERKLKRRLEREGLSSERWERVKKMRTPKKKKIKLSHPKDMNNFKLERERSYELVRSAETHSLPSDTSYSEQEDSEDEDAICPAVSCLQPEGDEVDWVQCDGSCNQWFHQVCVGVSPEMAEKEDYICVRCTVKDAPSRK

`O=C(O)c1c(NCc2cc(Cl)ccc2F)ccc2nccn12` [Example 66] gave a pIC50 of less than 6.00.

`O=C(O)c1c(NCc2cc(F)ccc2C(F)(F)F)ccc2nccn12` [Example 67] showed a pIC50 not below 6.30. The same measure for `Cc1ccc(F)cc1CNc1ccc2nccn2c1C(=O)O` [Example 68]: less than 6.00; for `Cc1ccc(C(F)(F)F)c(CNc2ccc3nccn3c2C(=O)O)c1` [Example 69]: less than 6.00. Compound `Cc1ccc(Cl)c(CNc2ccc3nccn3c2C(=O)O)c1F` [Example 70] gave a pIC50 of less than 6.00. As for `O=C(O)c1c(NCc2c(F)cc(F)cc2F)ccc2nccn12` [Example 71], the figure is 6.00 to 6.30; as for `O=C(O)c1c(NCc2ccc(Cl)cc2Cl)ccc2nccn12` [Example 72], 6.00 to 6.30; as for `O=C(O)c1c(NCc2cc(F)cc(F)c2)ccc2nccn12` [Example 73], less than 6.00. As for `O=C(O)c1c(NCc2ccc(Cl)cc2)ccc2nccn12` [Example 74], the figure is less than 6.00; as for `COc1cc(CNc2ccc3nccn3c2C(=O)O)ccc1O` [Example 75], less than 6.00; as for `Cn1c(=O)n(C)c2cc(CNc3ccc4nccn4c3C(=O)O)ccc21` [Example 76], 6.00 to 6.30. The same measure for `O=C(O)c1c(NCc2ccc3c(c2)OC(F)(F)O3)ccc2nccn12` [Example 77]: 6.00 to 6.30; for `O=C(O)c1c(NCc2ccc(-n3ccnc3)cc2)ccc2nccn12` [Example 78]: not below 6.30; for `O=C(O)c1c(NCc2cccc(F)c2F)ccc2nccn12` [Example 79]: less than 6.00. `O=C(O)c1c(NCc2ccc3c(c2)OCCO3)ccc2nccn12` [Example 80]: the pIC50 was less than 6.00. Compound `O=C(O)c1c(NCc2ccc(F)cc2F)ccc2nccn12` [Example 81] showed a negative logarithm of the IC50 (pIC50) of 6.00 to 6.30.

With `O=C(O)c1c(NCc2cc(F)ccc2F)ccc2nccn12` [Example 82], the negative-log IC50 (pIC50) was 6.00 to 6.30. As for `O=C(O)c1c(NCc2ccccc2-n2cccn2)ccc2nccn12` [Example 83], the figure is not below 6.30; as for `CS(=O)(=O)c1ccccc1CNc1ccc2nccn2c1C(=O)O` [Example 84], not below 6.30. The same measure for `O=C(O)c1c(NCc2ccccc2F)ccc2nccn12` [Example 85]: less than 6.00. For `O=C(O)c1c(NCc2ccccc2N2CCOCC2)ccc2nccn12` [Example 86], the pIC50 was less than 6.00. As for `O=C(O)c1c(NCc2cc(F)c(F)c(F)c2)ccc2nccn12` [Example 87], the pIC50 is less than 6.00. As for `CS(=O)(=O)c1cccc(CNc2ccc3nccn3c2C(=O)O)c1` [Example 88], the figure is not below 6.30; as for `O=C(O)c1c(NCc2cccc(OC(F)(F)F)c2)ccc2nccn12` [Example 89], less than 6.00. As for `O=C(O)c1c(NCc2ccc(F)c(Br)c2)ccc2nccn12` [Example 90], the figure is less than 6.00; as for `O=C(O)c1c(NCc2ccccc2Cl)ccc2nccn12` [Example 91], less than 6.00. In the case of `COc1c(F)cccc1CNc1ccc2nccn2c1C(=O)O` [Example 92], the pIC50 was 6.00 to 6.30. `O=C(O)c1c(NCc2cc(F)cc(C(F)(F)F)c2)ccc2nccn12` [Example 93] showed a pIC50 of less than 6.00. As for `COc1cccc(CNc2ccc3nccn3c2C(=O)O)c1` [Example 94], the figure is not below 6.30; as for `O=C(O)c1c(NCc2ccc(OC(F)(F)F)cc2)ccc2nccn12` [Example 95], less than 6.00; as for `CN(C)c1ccc(CNc2ccc3nccn3c2C(=O)O)cc1` [Example 96], less than 6.00. `COc1cc(CNc2ccc3nccn3c2C(=O)O)ccc1F` [Example 97] showed a pIC50 of 6.00 to 6.30. The same measure for `O=C(O)c1c(NCc2ccc3c(c2)CCO3)ccc2nccn12` [Example 98]: less than 6.00; for `O=C(O)c1c(NCc2cc(Cl)c(F)cc2F)ccc2nccn12` [Example 99]: less than 6.00; for `CC(=O)N(C)c1cccc(CNc2ccc3nccn3c2C(=O)O)c1` [Example 100]: 6.00 to 6.30. The compound `Cc1nc2cc(C(O)c3ccccc3)ccn2c1C(=O)O` (stereo not drawn) [Example 101] gave a pIC50 of less than 6.00.
